According to ChEMBL document CHEMBL3779873, “Rubrolide analogues and their derived lactams as potential anticancer agents” (Medchemcomm, 2016):

Test: Cytotoxicity against human HCT116 cells after 72 hrs by MTT assay
Format: functional, HCT-116

Row | Structure (SMILES) | RC50 [µM]
1 | O=C1O/C(=C\c2ccccc2Br)C(Cl)=C1Cl | 32.22
2 | O=C1O/C(=C\c2ccc([N+](=O)[O-])cc2)C(Cl)=C1Cl | 22.76
3 | COc1ccc(Br)cc1C1=C(Br)C(=O)N(CC(C)C)/C1=C/c1cccc(Cl)c1 | 5.52
4 | COc1ccc(Br)cc1C1=C(Br)C(=O)O/C1=C\c1ccc(F)cc1 | 13.06
5 | COc1ccc(Cl)cc1C1=C(Br)C(=O)O/C1=C\c1ccc(C(F)(F)F)cc1 | 12.66

Test: Cytotoxicity against human HL60 cells after 72 hrs by MTT assay
Format: functional, HL-60

Row | Structure (SMILES) | RC50 [µM]
6 | O=C1O/C(=C\c2ccccc2Br)C(Cl)=C1Cl | 10.01
7 | O=C1O/C(=C\c2ccc([N+](=O)[O-])cc2)C(Cl)=C1Cl | 8.98
8 | COc1ccc(Br)cc1C1=C(Br)C(=O)N(CC(C)C)/C1=C/c1cccc(Cl)c1 | 3.46
9 | COc1ccc(Br)cc1C1=C(Br)C(=O)O/C1=C\c1ccc(F)cc1 | 9.8
10 | COc1ccc(Cl)cc1C1=C(Br)C(=O)O/C1=C\c1ccc(C(F)(F)F)cc1 | 5.5

Test: Cytotoxicity against human SF295 cells after 72 hrs by MTT assay
Format: functional, SF-295

Row | Structure (SMILES) | RC50 [µM]
11 | O=C1O/C(=C\c2ccccc2Br)C(Cl)=C1Cl | 32.64
12 | O=C1O/C(=C\c2ccc([N+](=O)[O-])cc2)C(Cl)=C1Cl | 29.37
13 | COc1ccc(Br)cc1C1=C(Br)C(=O)N(CC(C)C)/C1=C/c1cccc(Cl)c1 | 8.03
14 | COc1ccc(Br)cc1C1=C(Br)C(=O)O/C1=C\c1ccc(F)cc1 | 15.44
15 | COc1ccc(Cl)cc1C1=C(Br)C(=O)O/C1=C\c1ccc(C(F)(F)F)cc1 | 14.12

Test: Cytotoxicity against human HCT116 cells assessed as reduction in cell viability at 25 ug/mL after 72 hrs by MTT assay
Format: functional, HCT-116

Row | Structure (SMILES) | Activity [%]
16 | CCCN1C(=O)C(Cl)=C(Cl)C1(O)Cc1ccc(F)cc1 (stereo unspecified) | 25.82
17 | COc1ccc(Br)cc1-c1c(Cc2ccc(C(F)(F)F)cc2)n[nH]c(=O)c1Br | 98.03
18 | COc1cccc(/C=C2\OC(=O)C(Br)=C2c2cc(Cl)ccc2OC)c1 | 97.09
19 | COc1ccc(C)cc1C1=C(Br)C(=O)N(CC(C)C)C1(O)Cc1ccccc1Cl (stereo unspecified) | 78.5
20 | CCCN1C(=O)C(Cl)=C(Cl)/C1=C\c1ccc(F)cc1 | 64.83
21 | COc1cccc(/C=C2/C(c3cc(Cl)ccc3OC)=C(Br)C(=O)N2CC(C)C)c1 | 38.65
22 | O=C1O/C(=C\c2cccc(Cl)c2)C(Cl)=C1Cl | 62.17
23 | O=C1O/C(=C\c2ccc3c(c2)OCO3)C(Cl)=C1Cl | 53.64
24 | COc1ccc(Br)cc1C1=C(Br)C(=O)N(CC(C)C)/C1=C\c1ccc(Br)cc1 | 44.22
25 | COc1ccc(Cl)cc1C1=C(Br)C(=O)O/C1=C\c1ccc([N+](=O)[O-])cc1 | 92.2
26 | COc1ccc(Cl)cc1-c1c(Cc2cccc([N+](=O)[O-])c2)n[nH]c(=O)c1Br | 31.84
27 | O=C1O/C(=C\c2ccccc2Br)C(Cl)=C1Cl | 97.58
28 | COc1ccc(Cl)cc1-c1c(Cc2ccc(F)cc2)n[nH]c(=O)c1Br | 14.71
29 | COc1ccc(Cl)cc1C1=C(Br)C(=O)O/C1=C\c1ccc(F)cc1 | 55.49
30 | COc1ccc(Br)cc1C1=C(Br)C(=O)N(CC(C)C)C1(O)Cc1ccc(Br)cc1 (stereo unspecified) | 82.39
31 | COc1ccc(Br)cc1-c1c(Cc2ccc(F)cc2)n[nH]c(=O)c1Br | 59.8
32 | CC(C)CN1C(=O)C(Cl)=C(Cl)/C1=C\c1ccc(Br)cc1 | 57.48
33 | COc1ccc(Br)cc1C1=C(Br)C(=O)O/C1=C\c1ccc(Br)cc1 | 97.53
34 | O=C1O/C(=C\c2ccc([N+](=O)[O-])cc2)C(Cl)=C1Cl | 93.05
35 | COc1ccc(Br)cc1C1=C(Br)C(=O)N(CC(C)C)/C1=C/c1cccc(Cl)c1 | 93.44
36 | COc1ccc(Br)cc1C1=C(Br)C(=O)O/C1=C\c1ccc(F)cc1 | 94.87
37 | COc1ccc(Cl)cc1C1=C(Br)C(=O)O/C1=C\c1ccc(C(F)(F)F)cc1 | 91.81

Test: Cytotoxicity against human SF295 cells assessed as reduction in cell viability at 25 ug/mL after 72 hrs by MTT assay
Format: functional, SF-295

Row | Structure (SMILES) | Activity [%]
38 | CCCN1C(=O)C(Cl)=C(Cl)C1(O)Cc1ccc(F)cc1 (stereo unspecified) | 10.95
39 | COc1ccc(Br)cc1-c1c(Cc2ccc(C(F)(F)F)cc2)n[nH]c(=O)c1Br | 74.92
40 | COc1cccc(/C=C2\OC(=O)C(Br)=C2c2cc(Cl)ccc2OC)c1 | 48.09
41 | COc1ccc(C)cc1C1=C(Br)C(=O)N(CC(C)C)C1(O)Cc1ccccc1Cl (stereo unspecified) | 63.57
42 | CCCN1C(=O)C(Cl)=C(Cl)/C1=C\c1ccc(F)cc1 | 97.74
43 | COc1cccc(/C=C2/C(c3cc(Cl)ccc3OC)=C(Br)C(=O)N2CC(C)C)c1 | 25.57
44 | O=C1O/C(=C\c2cccc(Cl)c2)C(Cl)=C1Cl | 86.08
45 | O=C1O/C(=C\c2ccc3c(c2)OCO3)C(Cl)=C1Cl | 87.84
46 | COc1ccc(Br)cc1C1=C(Br)C(=O)N(CC(C)C)/C1=C\c1ccc(Br)cc1 | 30.25
47 | COc1ccc(Cl)cc1C1=C(Br)C(=O)O/C1=C\c1ccc([N+](=O)[O-])cc1 | 82.86
48 | COc1ccc(Cl)cc1-c1c(Cc2cccc([N+](=O)[O-])c2)n[nH]c(=O)c1Br | 47.34
49 | O=C1O/C(=C\c2ccccc2Br)C(Cl)=C1Cl | 92.81
50 | COc1ccc(Cl)cc1-c1c(Cc2ccc(F)cc2)n[nH]c(=O)c1Br | 18.95
51 | COc1ccc(Cl)cc1C1=C(Br)C(=O)O/C1=C\c1ccc(F)cc1 | 84.72
52 | COc1ccc(Br)cc1C1=C(Br)C(=O)N(CC(C)C)C1(O)Cc1ccc(Br)cc1 (stereo unspecified) | 56.18
53 | COc1ccc(Br)cc1-c1c(Cc2ccc(F)cc2)n[nH]c(=O)c1Br | 48.14
54 | CC(C)CN1C(=O)C(Cl)=C(Cl)/C1=C\c1ccc(Br)cc1 | 58.59
55 | COc1ccc(Br)cc1C1=C(Br)C(=O)O/C1=C\c1ccc(Br)cc1 | 75.68
56 | O=C1O/C(=C\c2ccc([N+](=O)[O-])cc2)C(Cl)=C1Cl | 84.12
57 | COc1ccc(Br)cc1C1=C(Br)C(=O)N(CC(C)C)/C1=C/c1cccc(Cl)c1 | 90.65
58 | COc1ccc(Br)cc1C1=C(Br)C(=O)O/C1=C\c1ccc(F)cc1 | 82.06
59 | COc1ccc(Cl)cc1C1=C(Br)C(=O)O/C1=C\c1ccc(C(F)(F)F)cc1 | 80.1

Test: Cytotoxicity against human OVCAR8 cells assessed as reduction in cell viability at 25 ug/mL after 72 hrs by MTT assay
Format: functional, OVCAR-8

Row | Structure (SMILES) | Activity [%]
60 | CCCN1C(=O)C(Cl)=C(Cl)C1(O)Cc1ccc(F)cc1 (stereo unspecified) | 9.25
61 | COc1ccc(Br)cc1-c1c(Cc2ccc(C(F)(F)F)cc2)n[nH]c(=O)c1Br | 46.18
62 | COc1cccc(/C=C2\OC(=O)C(Br)=C2c2cc(Cl)ccc2OC)c1 | 97.92
63 | COc1ccc(C)cc1C1=C(Br)C(=O)N(CC(C)C)C1(O)Cc1ccccc1Cl (stereo unspecified) | 44.39
64 | CCCN1C(=O)C(Cl)=C(Cl)/C1=C\c1ccc(F)cc1 | 99.07
65 | COc1cccc(/C=C2/C(c3cc(Cl)ccc3OC)=C(Br)C(=O)N2CC(C)C)c1 | 42.28
66 | O=C1O/C(=C\c2cccc(Cl)c2)C(Cl)=C1Cl | 99.86
67 | O=C1O/C(=C\c2ccc3c(c2)OCO3)C(Cl)=C1Cl | 94.9
68 | COc1ccc(Br)cc1C1=C(Br)C(=O)N(CC(C)C)/C1=C\c1ccc(Br)cc1 | 25.49
69 | COc1ccc(Cl)cc1C1=C(Br)C(=O)O/C1=C\c1ccc([N+](=O)[O-])cc1 | 53.71
70 | COc1ccc(Cl)cc1-c1c(Cc2cccc([N+](=O)[O-])c2)n[nH]c(=O)c1Br | 37.42
71 | O=C1O/C(=C\c2ccccc2Br)C(Cl)=C1Cl | 93.14
72 | COc1ccc(Cl)cc1-c1c(Cc2ccc(F)cc2)n[nH]c(=O)c1Br | 42.17
73 | COc1ccc(Cl)cc1C1=C(Br)C(=O)O/C1=C\c1ccc(F)cc1 | 32.6
74 | COc1ccc(Br)cc1C1=C(Br)C(=O)N(CC(C)C)C1(O)Cc1ccc(Br)cc1 (stereo unspecified) | 32.1
75 | COc1ccc(Br)cc1-c1c(Cc2ccc(F)cc2)n[nH]c(=O)c1Br | 29.08
76 | CC(C)CN1C(=O)C(Cl)=C(Cl)/C1=C\c1ccc(Br)cc1 | 52.94
77 | COc1ccc(Br)cc1C1=C(Br)C(=O)O/C1=C\c1ccc(Br)cc1 | 98.28
78 | O=C1O/C(=C\c2ccc([N+](=O)[O-])cc2)C(Cl)=C1Cl | 98.2
79 | COc1ccc(Br)cc1C1=C(Br)C(=O)N(CC(C)C)/C1=C/c1cccc(Cl)c1 | 93.39
80 | COc1ccc(Br)cc1C1=C(Br)C(=O)O/C1=C\c1ccc(F)cc1 | 94.68
81 | COc1ccc(Cl)cc1C1=C(Br)C(=O)O/C1=C\c1ccc(C(F)(F)F)cc1 | 96.84

Test: Cytotoxicity against human OVCAR8 cells after 72 hrs by MTT assay
Format: functional, OVCAR-8

Row | Structure (SMILES) | RC50 [µM]
82 | O=C1O/C(=C\c2ccccc2Br)C(Cl)=C1Cl | 11.64
83 | O=C1O/C(=C\c2ccc([N+](=O)[O-])cc2)C(Cl)=C1Cl | 9.51
84 | COc1ccc(Br)cc1C1=C(Br)C(=O)N(CC(C)C)/C1=C/c1cccc(Cl)c1 | 4.18
85 | COc1ccc(Br)cc1C1=C(Br)C(=O)O/C1=C\c1ccc(F)cc1 | 5.17
86 | COc1ccc(Cl)cc1C1=C(Br)C(=O)O/C1=C\c1ccc(C(F)(F)F)cc1 | 7.51
